Test [1] addresses human Gal-3 (hGal-3) (Homo sapiens (Human), UniProt P17931). As to the kind of experiment: Competitive binding assay: biotinylated hGal-3 to microplate-adsorbed asialofetuin (ASF). To be noted: Activity on hGal-3; binding to ASF-coated plates, 3 hours at 4° C.; mean values. On the procedure: Evaluation of Compound Inhibitory Activity (IC50)
The inhibitory activity of compounds is determined in competitive binding assays. This spectrophotometric assay measures the binding of biotinylated human Gal-3 (hGal-3) or human Gal-1 (hGal-1), respectively, to a microplate-adsorbed glycoprotein, asialofetuin (ASF) (Proc Natl Acad Sci USA. 2013 Mar. 26; 110(13):5052-7.). Alternatively, and preferably, a human Gal-1 version in which all six cysteines are substituted by serines may be used.
Briefly, compounds are serially diluted in DMSO (working dilutions). ASF-coated 384 well plates are supplemented with 22.8 μL/well of biotinylated hGal-3 or hGal-1 in assay buffer (i.e. 300-1000 ng/mL biotinylated hGal-3 or hGal-1) to which 1.2 µL of compound working dilutions are added and mixed.
Plates are incubated for 3 hours at 4° C., then washed with cold assay buffer (3×50 uL), incubated for 1 hour with 25 μL/well of a streptavidin-peroxidase solution (diluted in assay buffer to 80 ng/mL) at 4° C., followed by further washing steps with assay buffer (3×50 uL). Finally, 25 µL/well of ABTS substrate is added.
The calculated IC50 values may fluctuate depending on the daily assay performance. Fluctuations of this kind are known to those skilled in the art. IC50 values from several measurements are given as mean values.

Test [2] concerns the target human Gal-1 (hGal-1) (Homo sapiens, UniProt P09382). In words: Competitive binding assay: biotinylated hGal-1 to microplate-adsorbed asialofetuin (ASF). As to conditions: Activities on hGal-1; binding to ASF-coated plates, 3 hours at 4° C.; mean values; read-out: Gal-1 IC50. As to the method:
Evaluation of Compound Inhibitory Activity (IC50) The inhibitory activity of compounds is determined in competitive binding assays. […] Alternatively, and preferably, a human Gal-1 version in which all six cysteines are substituted by serines may be used. Briefly, compounds are serially diluted in DMSO (working dilutions). […] Plates are incubated for 3 hours at 4° C., then washed with cold assay buffer (3×50 uL), incubated for 1 hour with 25 μL/well of a streptavidin-peroxidase solution (diluted in assay buffer to 80 ng/mL) at 4° C., followed by further washing steps with assay buffer (3×50 uL). Finally, 25 µL/well of ABTS substrate is added. […] The calculated IC50 values may fluctuate depending on the daily assay performance. Fluctuations of this kind are known to those skilled in the art. IC50 values from several measurements are given as mean values.

Sequence of human Gal-1 (hGal-1) (P09382 2-135 limits assumed): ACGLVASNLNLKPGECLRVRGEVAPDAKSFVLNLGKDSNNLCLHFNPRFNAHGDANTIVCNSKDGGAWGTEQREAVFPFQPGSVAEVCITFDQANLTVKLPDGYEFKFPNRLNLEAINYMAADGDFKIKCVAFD
Sequence of human Gal-3 (hGal-3) (P17931 whole entry): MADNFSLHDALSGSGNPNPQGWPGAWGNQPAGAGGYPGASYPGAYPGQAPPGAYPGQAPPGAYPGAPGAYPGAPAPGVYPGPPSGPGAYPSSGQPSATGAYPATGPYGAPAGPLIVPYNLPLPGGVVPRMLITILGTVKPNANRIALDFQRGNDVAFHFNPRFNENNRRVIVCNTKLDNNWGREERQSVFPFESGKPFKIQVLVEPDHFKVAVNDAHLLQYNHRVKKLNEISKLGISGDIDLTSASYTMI

For orientation: IC50 means the concentration that gives 50% inhibition. For `CO[C@@H]1[C@@H](n2cc(-c3cc(F)c(F)c(F)c3)nn2)[C@@H](O)[C@@H](CO)O[C@@H]1CC1=NOC2(CCCC2)C1` [Example 1.09, (2R,3R,4S,5R,6R)-6-((1-oxa-2-azaspiro[4.4]non-2-en-3-yl)methyl)-2-(hydroxymethyl)-5-methoxy-4-(4-(3,4,5-trifluorophenyl)-1H-1,2,3-triazol-1-yl)tetrahydro-2H-pyran-3-ol], the IC50 in test [1] is 950 nM; in test [2], 2700 nM.

As for `CO[C@@H]1[C@@H](n2cc(-c3cc(F)c(F)c(F)c3)nn2)[C@@H](O)[C@@H](CO)O[C@@H]1CC1=NOC2(CCC2)C1` [Example 1.10, (2R,3R,4S,5R,6R)-6-((5-oxa-6-azaspiro[3.4]oct-6-en-7-yl)methyl)-2-(hydroxymethyl)-5-methoxy-4-(4-(3,4,5-trifluorophenyl)-1H-1,2,3-triazol-1-yl)tetrahydro-2H-pyran-3-ol], the figures for the half-inhibitory concentration (IC50) in test [1] and in test [2] were 620 nM and 2200 nM, respectively.

Regarding `CO[C@@H]1[C@@H](n2cc(-c3cc(F)c(F)c(F)c3)nn2)[C@@H](O)[C@@H](CO)O[C@@H]1CC1=NOC2(CCC(NC(=O)OC(C)(C)C)CC2)C1` (stereo partly drawn) [Example 1.11, tert-butyl (3-(((2R,3R,4S,5R,6R)-5-hydroxy-6-(hydroxymethyl)-3-methoxy-4-(4-(3,4,5-trifluorophenyl)-1H-1,2,3-triazol-1-yl)tetrahydro-2H-pyran-2-yl)methyl)-1-oxa-2-azaspiro[4.5]dec-2-en-8-yl)carbamate], the IC50 turned out to be 69 nM in test [1] and 1500 nM in test [2].

Take `CO[C@@H]1[C@@H](n2cc(-c3ccc(Cl)c(F)c3)nn2)[C@@H](O)[C@@H](CO)O[C@@H]1CC1=NOC2(CCCCC2)C1` [Example 1.12, (2R,3R,4S,5R,6R)-6-((1-oxa-2-azaspiro[4.5]dec-2-en-3-yl)methyl)-4-(4-(4-chloro-3-fluorophenyl)-1H-1,2,3-triazol-1-yl)-2-(hydroxymethyl)-5-methoxytetrahydro-2H-pyran-3-ol]: the IC50 in test [1] amounted to 310 nM; in test [2], 1100 nM.

With `CO[C@@H]1[C@@H](n2cc(-c3ccc(F)c(F)c3F)nn2)[C@@H](O)[C@@H](CO)O[C@@H]1CC1=NOC2(CCCCC2)C1` [Example 1.13, (2R,3R,4S,5R,6R)-6-((1-oxa-2-azaspiro[4.5]dec-2-en-3-yl)methyl)-2-(hydroxymethyl)-5-methoxy-4-(4-(2,3,4-trifluorophenyl)-1H-1,2,3-triazol-1-yl)tetrahydro-2H-pyran-3-ol], the concentration for half-maximal inhibition (IC50) in test [1] was determined as 140 nM; in test [2], 520 nM.

With `CO[C@@H]1[C@@H](n2cc(-c3ccc(C)c(F)c3F)nn2)[C@@H](O)[C@@H](CO)O[C@@H]1CC1=NOC2(CCCCC2)C1` [Example 1.14, (2R,3R,4S,5R,6R)-6-((1-oxa-2-azaspiro[4.5]dec-2-en-3-yl)methyl)-4-(4-(2,3-difluoro-4-methylphenyl)-1H-1,2,3-triazol-1-yl)-2-(hydroxymethyl)-5-methoxytetrahydro-2H-pyran-3-ol], the IC50 in test [1] came to 78 nM; in test [2] it was 2100 nM.

For `CO[C@@H]1[C@@H](n2cc(-c3cc(F)c(F)c(F)c3)nn2)[C@@H](O)[C@@H](CO)O[C@@H]1CC1=NO[C@]2(CC[C@H](NC(=O)OC(C)(C)C)CC2)C1` [Example 1.15, tert-butyl ((5r,8R)-3-(((2R,3R,4S,5R,6R)-5-hydroxy-6-(hydroxymethyl)-3-methoxy-4-(4-(3,4,5-trifluorophenyl)-1H-1,2,3-triazol-1-yl)tetrahydro-2H-pyran-2-yl)methyl)-1-oxa-2-azaspiro[4.5]dec-2-en-8-yl)carbamate], the figures for the IC50 in test [1] and in test [2] were 35 nM and 1100 nM, respectively.

For `CO[C@@H]1[C@@H](n2cc(-c3cc(F)c(F)c(F)c3)nn2)[C@@H](O)[C@@H](CO)O[C@@H]1CC1=NO[C@]2(CC[C@@H](NC(=O)OC(C)(C)C)CC2)C1` [Example 1.16, tert-butyl ((5s,8S)-3-(((2R,3R,4S,5R,6R)-5-hydroxy-6-(hydroxymethyl)-3-methoxy-4-(4-(3,4,5-trifluorophenyl)-1H-1,2,3-triazol-1-yl)tetrahydro-2H-pyran-2-yl)methyl)-1-oxa-2-azaspiro[4.5]dec-2-en-8-yl)carbamate], the IC50 in test [1] stood at 340 nM; in test [2], 2300 nM.

On to `CO[C@@H]1[C@@H](n2cc(-c3ccc(Br)c(F)c3F)nn2)[C@@H](O)[C@@H](CO)O[C@@H]1CC1=NOC2(CCCCC2)C1` [Example 1.17, (2R,3R,4S,5R,6R)-6-((1-oxa-2-azaspiro[4.5]dec-2-en-3-yl)methyl)-4-(4-(4-bromo-2,3-difluorophenyl)-1H-1,2,3-triazol-1-yl)-2-(hydroxymethyl)-5-methoxytetrahydro-2H-pyran-3-ol], for which the IC50 in test [1] was determined as 160 nM; in test [2], 6000 nM.

Take `CO[C@@H]1[C@@H](n2cc(-c3cc(F)c(Cl)c(F)c3)nn2)[C@@H](O)[C@@H](CO)O[C@@H]1CC1=NOC2(CCCCC2)C1` [Example 1.18, (2R,3R,4S,5R,6R)-6-((1-oxa-2-azaspiro[4.5]dec-2-en-3-yl)methyl)-4-(4-(4-chloro-3,5-difluorophenyl)-1H-1,2,3-triazol-1-yl)-2-(hydroxymethyl)-5-methoxytetrahydro-2H-pyran-3-ol]: the 50% inhibitory concentration (IC50) in test [1] turned out to be 180 nM; in test [2] it was 10300 nM.

Consider `CO[C@@H]1[C@@H](n2cc(-c3cc(F)cc(Cl)c3)nn2)[C@@H](O)[C@@H](CO)O[C@@H]1CC1=NOC2(CCCCC2)C1` [Example 1.19, (2R,3R,4S,5R,6R)-6-((1-oxa-2-azaspiro[4.5]dec-2-en-3-yl)methyl)-4-(4-(3-chloro-5-fluorophenyl)-1H-1,2,3-triazol-1-yl)-2-(hydroxymethyl)-5-methoxytetrahydro-2H-pyran-3-ol], for which the IC50 worked out at 680 nM in test [1] and 4200 nM in test [2].

With `CO[C@@H]1[C@@H](n2cc(-c3ccc(C)c(F)c3)nn2)[C@@H](O)[C@@H](CO)O[C@@H]1CC1=NOC2(CCCCC2)C1` [Example 1.20, (2R,3R,4S,5R,6R)-6-((1-oxa-2-azaspiro[4.5]dec-2-en-3-yl)methyl)-4-(4-(3-fluoro-4-methylphenyl)-1H-1,2,3-triazol-1-yl)-2-(hydroxymethyl)-5-methoxytetrahydro-2H-pyran-3-ol], the results for the IC50 in test [1] and in test [2] were 120 nM and 5300 nM, respectively.

In the case of `CO[C@@H]1[C@@H](n2cc(-c3cc(F)c(C)c(F)c3)nn2)[C@@H](O)[C@@H](CO)O[C@@H]1CC1=NOC2(CCCCC2)C1` [Example 1.21, (2R,3R,4S,5R,6R)-6-((1-oxa-2-azaspiro[4.5]dec-2-en-3-yl)methyl)-4-(4-(3,5-difluoro-4-methylphenyl)-1H-1,2,3-triazol-1-yl)-2-(hydroxymethyl)-5-methoxytetrahydro-2H-pyran-3-ol], the 50% inhibitory concentration (IC50) in test [1] came out at 110 nM; in test [2], 11400 nM.

Regarding `CO[C@@H]1[C@@H](n2cc(-c3ccc(Cl)c(F)c3F)nn2)[C@@H](O)[C@@H](CO)O[C@@H]1CC1=NOC2(CCCCC2)C1` [Example 1.22, (2R,3R,4S,5R,6R)-6-((1-oxa-2-azaspiro[4.5]dec-2-en-3-yl)methyl)-4-(4-(4-chloro-2,3-difluorophenyl)-1H-1,2,3-triazol-1-yl)-2-(hydroxymethyl)-5-methoxytetrahydro-2H-pyran-3-ol], the IC50 in test [1] amounted to 76 nM; in test [2] it was 3700 nM.

`CO[C@@H]1[C@@H](n2cc(-c3cc(F)c(F)c(F)c3)nn2)[C@@H](O)[C@@H](CO)O[C@@H]1CC1=NOC2(CCOCC2)C1` [Example 1.23, (2R,3R,4S,5R,6R)-6-((1,8-dioxa-2-azaspiro[4.5]dec-2-en-3-yl)methyl)-2-(hydroxymethyl)-5-methoxy-4-(4-(3,4,5-trifluorophenyl)-1H-1,2,3-triazol-1-yl)tetrahydro-2H-pyran-3-ol]: the IC50 in test [1] stood at 760 nM; in test [2], 3500 nM.

Consider `CO[C@@H]1[C@@H](n2cc(-c3cc(F)c(F)c(F)c3)nn2)[C@@H](O)[C@@H](CO)O[C@@H]1CC1=NOC2(CCC(F)(F)CC2)C1` [Example 1.24, (2R,3R,4S,5R,6R)-6-((8,8-difluoro-1-oxa-2-azaspiro[4.5]dec-2-en-3-yl)methyl)-2-(hydroxymethyl)-5-methoxy-4-(4-(3,4,5-trifluorophenyl)-1H-1,2,3-triazol-1-yl)tetrahydro-2H-pyran-3-ol], for which the half-inhibitory concentration (IC50) stood at 450 nM in test [1] and 4900 nM in test [2].

The values above are taken from patent publication US20230295182A1, “SPIRO DERIVATIVES OF ALPHA-D-GALACTOPYRANOSIDES” (Idorsia Pharmaceuticals Ltd, priority 2020, published 2023).
